Earlier results in patent US20200069777A1, “ANTIMICROBIAL COMPOSITIONS AND FORMULATIONS” (Matoke Holdings Limited, priority 2016, published 2020).

Conditions: 20° C. and 1 atm

- solubility: 90 g/100 g water
Compound: O=C[C@H](O)[C@@H](O)[C@H](O)[C@H](O)CO [Glucose]
